# In article PMC9866191, “Novel 9-Benzylaminoacridine Derivatives as Dual Inhibitors of Phosphodiesterase 5 and Topoisomerase II for the Treatment of Colon Cancer” (Molecules, 2023):
# How the values were obtained:
# Experiment in all cases: NCI-60 one-dose screen
# Type in all cases: cell-based
# 786-0 = conditions: Homo sapiens; 786-0, Renal Cancer panel; single dose 10^−5 M; read-out: Growth inhibition %
# A498 = conditions: Homo sapiens; A498, Renal Cancer panel; single dose 10^−5 M; read-out: Growth inhibition %
# COLO 205 = conditions: Homo sapiens; COLO 205, Colon Cancer panel; single dose 10^−5 M; read-out: Growth inhibition %
# EKVX = conditions: Homo sapiens, Non-small cell lung panel, single dose 10^−5 M, read-out: Growth inhibition %
# HCC-2998 = conditions: Homo sapiens; HCC-2998, Colon Cancer panel; single dose 10^−5 M; read-out: Growth inhibition %
# HCT-116 = conditions: Homo sapiens, read-out: Growth inhibition %
# HCT-15 = conditions: Homo sapiens; HCT-15, Colon Cancer panel; single dose 10^−5 M; read-out: Growth inhibition %
# HL-60(TB) = conditions: Homo sapiens, Leukemia panel, single dose 10^−5 M, read-out: Growth inhibition %
# HOP-62 = conditions: Homo sapiens; HOP-62, Non-small cell lung panel; single dose 10^−5 M; read-out: Growth inhibition %
# HOP-92 = conditions: Homo sapiens; HOP-92, Non-small cell lung panel; single dose 10^−5 M; read-out: Growth inhibition %
# HS 578T = conditions: Homo sapiens, Breast Cancer panel, single dose 10^−5 M, read-out: Growth inhibition %
# M14 = conditions: Homo sapiens; M14, Melanoma panel; single dose 10^−5 M; read-out: Growth inhibition %
# MALME-3M = conditions: Homo sapiens, Melanoma panel, single dose 10^−5 M, read-out: Growth inhibition %
# MCF7 = conditions: Homo sapiens; MCF7, Breast Cancer panel; single dose 10^−5 M; read-out: Growth inhibition %
# MDA-MB-435 = conditions: Homo sapiens; MDA-MB-435, Melanoma panel; single dose 10^−5 M; read-out: Growth inhibition %
# MOLT-4 = conditions: Homo sapiens; MOLT-4, Leukemia panel; single dose 10^−5 M; read-out: Growth inhibition %
# NCI-H23 = conditions: Homo sapiens; NCI-H23, Non-small cell lung panel; single dose 10^−5 M; read-out: Growth inhibition %
# NCI-H522 = conditions: Homo sapiens; NCI-H522, Non-small cell lung panel; single dose 10^−5 M; read-out: Growth inhibition %
# NCI/ADR-RES = conditions: Homo sapiens, Ovarian Cancer panel, single dose 10^−5 M, read-out: Growth inhibition %
# OVCAR-3 = conditions: Homo sapiens; OVCAR-3, Ovarian Cancer panel; single dose 10^−5 M; read-out: Growth inhibition %
# OVCAR-4 = conditions: Homo sapiens; OVCAR-4, Ovarian Cancer panel; single dose 10^−5 M; read-out: Growth inhibition %
# OVCAR-5 = conditions: Homo sapiens; OVCAR-5, Ovarian Cancer panel; single dose 10^−5 M; read-out: Growth inhibition %
# OVCAR-8 = conditions: Homo sapiens; OVCAR-8, Ovarian Cancer panel; single dose 10^−5 M; read-out: Growth inhibition %
# SF-295 = conditions: Homo sapiens; SF-295, CNS Cancer panel; single dose 10^−5 M; read-out: Growth inhibition %
# SK-MEL-5 = conditions: Homo sapiens; SK-MEL-5, Melanoma panel; single dose 10^−5 M; read-out: Growth inhibition %
# SN12C = conditions: Homo sapiens, Renal Cancer panel, single dose 10^−5 M, read-out: Growth inhibition %
# SR = conditions: Homo sapiens, Leukemia panel, single dose 10^−5 M, read-out: Growth inhibition %
# T-47D = conditions: Homo sapiens, T47D, Breast Cancer panel, single dose 10^−5 M, read-out: Growth inhibition %
# TK-10 = conditions: Homo sapiens; TK-10, Renal Cancer panel; single dose 10^−5 M; read-out: Growth inhibition %
# UACC-257 = conditions: Homo sapiens; UACC-257, Melanoma panel; single dose 10^−5 M; read-out: Growth inhibition %
# UACC-62 = conditions: Homo sapiens; UACC-62, Melanoma panel; single dose 10^−5 M; read-out: Growth inhibition %
# UO-31 = conditions: Homo sapiens; UO-31, Renal Cancer panel; single dose 10^−5 M; read-out: Growth inhibition %
compound,measurement,setting,value
"COc1ccc(CNc2c3ccccc3nc3ccccc23)cc1 [Compound 7, Acridin-9-yl-(4-methoxybenzyl)-amine]",inhibition at 10 µM,786-0,67.6%
same,inhibition at 10 µM,A498,90%
same,inhibition at 10 µM,COLO 205,88.4%
same,inhibition at 10 µM,EKVX,50.3%
same,inhibition at 10 µM,HCC-2998,61.4%
same,inhibition at 10 µM,HCT-116,90.5%
same,inhibition at 10 µM,HCT-15,78%
same,inhibition at 10 µM,HL-60(TB),57%
same,inhibition at 10 µM,HOP-62,46.1%
same,inhibition at 10 µM,HOP-92,75.5%
same,inhibition at 10 µM,HS 578T,42%
same,inhibition at 10 µM,M14,62.9%
same,inhibition at 10 µM,MALME-3M,60%
same,inhibition at 10 µM,MCF7,87.4%
same,inhibition at 10 µM,MDA-MB-435,59.8%
same,inhibition at 10 µM,MOLT-4,90.6%
same,inhibition at 10 µM,NCI-H23,61.2%
same,inhibition at 10 µM,NCI-H522,47%
same,inhibition at 10 µM,NCI/ADR-RES,61.2%
same,inhibition at 10 µM,OVCAR-3,51.9%
same,inhibition at 10 µM,OVCAR-4,59.7%
same,inhibition at 10 µM,OVCAR-5,53.6%
same,inhibition at 10 µM,OVCAR-8,72.3%
same,inhibition at 10 µM,SF-295,60.9%
same,inhibition at 10 µM,SK-MEL-5,37.8%
same,inhibition at 10 µM,SN12C,67.8%
same,inhibition at 10 µM,SR,93%
same,inhibition at 10 µM,T-47D,55.1%
same,inhibition at 10 µM,TK-10,50.5%
same,inhibition at 10 µM,UACC-257,47.7%
same,inhibition at 10 µM,UACC-62,44.2%
same,inhibition at 10 µM,UO-31,77.9%
"Fc1ccccc1CNc1c2ccccc2nc2ccccc12 [Compound 8, Acridin-9-yl-(2-fluorobenzyl)-amine]",inhibition at 10 µM,786-0,60%
same,inhibition at 10 µM,A498,89.1%
same,inhibition at 10 µM,COLO 205,84.9%
same,inhibition at 10 µM,EKVX,38.3%
same,inhibition at 10 µM,HCC-2998,52%
same,inhibition at 10 µM,HCT-116,86.1%
same,inhibition at 10 µM,HCT-15,70.3%
same,inhibition at 10 µM,HL-60(TB),43.1%
same,inhibition at 10 µM,HOP-62,47.5%
same,inhibition at 10 µM,HOP-92,77.3%
same,inhibition at 10 µM,HS 578T,30.9%
same,inhibition at 10 µM,M14,46%
same,inhibition at 10 µM,MALME-3M,55.3%
same,inhibition at 10 µM,MCF7,83.8%
same,inhibition at 10 µM,MDA-MB-435,43.8%
same,inhibition at 10 µM,MOLT-4,82.7%
same,inhibition at 10 µM,NCI-H23,55.9%
same,inhibition at 10 µM,NCI-H522,34.2%
same,inhibition at 10 µM,NCI/ADR-RES,62%
same,inhibition at 10 µM,OVCAR-3,35.9%
same,inhibition at 10 µM,OVCAR-4,60%
same,inhibition at 10 µM,OVCAR-5,48.8%
same,inhibition at 10 µM,OVCAR-8,68.9%
same,inhibition at 10 µM,SF-295,48.2%
same,inhibition at 10 µM,SK-MEL-5,39.3%
same,inhibition at 10 µM,SN12C,60.4%
same,inhibition at 10 µM,SR,82%
same,inhibition at 10 µM,T-47D,55.2%
same,inhibition at 10 µM,TK-10,41.8%
same,inhibition at 10 µM,UACC-257,41.2%
same,inhibition at 10 µM,UACC-62,38.4%
same,inhibition at 10 µM,UO-31,72.3%
"Fc1cccc(CNc2c3ccccc3nc3ccccc23)c1 [Compound 9, Acridin-9-yl-(3-fluorobenzyl)-amine]",inhibition at 10 µM,786-0,63.5%
same,inhibition at 10 µM,A498,113%
same,inhibition at 10 µM,COLO 205,82.7%
same,inhibition at 10 µM,EKVX,68%
same,inhibition at 10 µM,HCC-2998,70.1%
same,inhibition at 10 µM,HCT-116,86.6%
same,inhibition at 10 µM,HCT-15,77.1%
same,inhibition at 10 µM,HL-60(TB),53%
same,inhibition at 10 µM,HOP-62,52.1%
same,inhibition at 10 µM,HOP-92,104%
same,inhibition at 10 µM,HS 578T,36.1%
same,inhibition at 10 µM,M14,61.2%
same,inhibition at 10 µM,MALME-3M,49.5%
same,inhibition at 10 µM,MCF7,92.1%
same,inhibition at 10 µM,MDA-MB-435,51.1%
same,inhibition at 10 µM,MOLT-4,85.1%
same,inhibition at 10 µM,NCI-H23,66.1%
same,inhibition at 10 µM,NCI-H522,62.2%
same,inhibition at 10 µM,NCI/ADR-RES,69.9%
same,inhibition at 10 µM,OVCAR-3,33%
same,inhibition at 10 µM,OVCAR-4,69.5%
same,inhibition at 10 µM,OVCAR-5,56.2%
same,inhibition at 10 µM,OVCAR-8,64%
same,inhibition at 10 µM,SF-295,74.8%
same,inhibition at 10 µM,SK-MEL-5,39.5%
same,inhibition at 10 µM,SN12C,67.2%
same,inhibition at 10 µM,SR,80.9%
same,inhibition at 10 µM,T-47D,57.3%
same,inhibition at 10 µM,TK-10,35.9%
same,inhibition at 10 µM,UACC-257,41.9%
same,inhibition at 10 µM,UACC-62,49.7%
same,inhibition at 10 µM,UO-31,76%
"Fc1ccc(CNc2c3ccccc3nc3ccccc23)cc1 [Compound 10, Acridin-9-yl-(4-fluorobenzyl)-amine]",inhibition at 10 µM,786-0,72.4%
same,inhibition at 10 µM,A498,102%
same,inhibition at 10 µM,COLO 205,92.5%
same,inhibition at 10 µM,EKVX,64.4%
same,inhibition at 10 µM,HCC-2998,81.7%
same,inhibition at 10 µM,HCT-116,87.5%
same,inhibition at 10 µM,HCT-15,82.4%
same,inhibition at 10 µM,HL-60(TB),78.8%
same,inhibition at 10 µM,HOP-62,57%
same,inhibition at 10 µM,HOP-92,82.8%
same,inhibition at 10 µM,HS 578T,60.5%
same,inhibition at 10 µM,M14,65.7%
same,inhibition at 10 µM,MALME-3M,74.3%
same,inhibition at 10 µM,MCF7,92.9%
same,inhibition at 10 µM,MDA-MB-435,65.2%
same,inhibition at 10 µM,MOLT-4,91.3%
same,inhibition at 10 µM,NCI-H23,68.3%
same,inhibition at 10 µM,NCI-H522,47.6%
same,inhibition at 10 µM,NCI/ADR-RES,70.3%
same,inhibition at 10 µM,OVCAR-3,61.3%
same,inhibition at 10 µM,OVCAR-4,66.8%
same,inhibition at 10 µM,OVCAR-5,61.5%
same,inhibition at 10 µM,OVCAR-8,77.7%
same,inhibition at 10 µM,SF-295,72.4%
same,inhibition at 10 µM,SK-MEL-5,57.5%
same,inhibition at 10 µM,SN12C,74.3%
same,inhibition at 10 µM,SR,93.4%
same,inhibition at 10 µM,T-47D,68.9%
same,inhibition at 10 µM,TK-10,69.8%
same,inhibition at 10 µM,UACC-257,64%
same,inhibition at 10 µM,UACC-62,49.8%
same,inhibition at 10 µM,UO-31,86.5%
"Clc1ccc(CNc2c3ccccc3nc3ccccc23)cc1 [Compound 13, Acridin-9-yl-(4-chlorobenzyl)-amine]",inhibition at 10 µM,786-0,64.7%
same,inhibition at 10 µM,A498,79.2%
same,inhibition at 10 µM,COLO 205,91.4%
same,inhibition at 10 µM,EKVX,37.4%
same,inhibition at 10 µM,HCC-2998,110%
same,inhibition at 10 µM,HCT-116,84.3%
same,inhibition at 10 µM,HCT-15,76.7%
same,inhibition at 10 µM,HL-60(TB),55.3%
same,inhibition at 10 µM,HOP-62,47%
same,inhibition at 10 µM,HOP-92,74.5%
same,inhibition at 10 µM,HS 578T,46.2%
same,inhibition at 10 µM,M14,46.7%
same,inhibition at 10 µM,MALME-3M,60.4%
same,inhibition at 10 µM,MCF7,84%
same,inhibition at 10 µM,MDA-MB-435,39.3%
same,inhibition at 10 µM,MOLT-4,95.4%
same,inhibition at 10 µM,NCI-H23,47%
same,inhibition at 10 µM,NCI-H522,33.5%
same,inhibition at 10 µM,NCI/ADR-RES,63.4%
same,inhibition at 10 µM,OVCAR-3,48.9%
same,inhibition at 10 µM,OVCAR-4,66.9%
same,inhibition at 10 µM,OVCAR-5,49.5%
same,inhibition at 10 µM,OVCAR-8,68.1%
same,inhibition at 10 µM,SF-295,40.4%
same,inhibition at 10 µM,SK-MEL-5,38.8%
same,inhibition at 10 µM,SN12C,60.9%
same,inhibition at 10 µM,SR,97.7%
same,inhibition at 10 µM,T-47D,56.6%
same,inhibition at 10 µM,TK-10,50.3%
same,inhibition at 10 µM,UACC-257,23.9%
same,inhibition at 10 µM,UACC-62,29.3%
same,inhibition at 10 µM,UO-31,73%
